Experimental data: patent publication US11015179B2, “Peptide having anti-viral effect and composition containing same” (priority 2015, dated 2021)

Columns and labels:
HCV = test: Quantitative PCR of HCV NS2 transcript in JFH-1 cells; type: cell-based, Hepatitis C virus (HCV2a JFH-1); conditions: 48 hours, vs vehicle, PEP1 until 10 μM, NAC 20 mM, PDTC 100 μM, vitamin E 10 μM
Protocol: A cell line used in the example relating to the HCV antiviral effect of PEP1 according to an aspect of the present invention, such as, human hepatocellular carcinoma (Huh7.5) was purchased from the American Type Culture Collection (ATCC; Manassas, Va., USA), and a JFH-1 cell line was constructed using HCV2a JFH-1 clones provided from Dr. Wakita (Tokyo Metropolitan Institute for Neuroscience, Tokyo, Japan) in the Huh7.5 cell line. All of the cell lines were cultured in a Dulbecco's modified Eagle's medium (DMEM) containing 10% FBS and 1% antibiotics.
A HCV RNA level was detected though quantitative PCR using primers for a NS2 gene. To measure the level of HCV RNA in the supernatant of cell culture, RNA was extracted from 100 μl of the cell culture using a QIAamp Viral RNA Mini kit (Qiagen). The extracted RNA was used in cDNA synthesis using a transcript first strand cDNA synthesis supermix kit (Roche Applied Science). PCR was carried out using a 1×SYBR Green mix (Qiagen). For real-time PCR, an NS2 forward primer 5′-[…]-3′ (SEQ ID NO: 3) and a reverse primer 5′-[…]-3′ (SEQ ID NO: 4) were purchased from Bioneer Co. For quantitative PCR, a 7900HT Fast real-time PCR system (Applied Biosystems, Foster City, Calif., USA) was used.
According to the methods described in the experiments and the analysis methods, to investigate whether PEP1 inhibits the replication of one HCV RNA such as NS2, the transcript of NS2 was measured.

JFH-1 cells = test: Intracellular ROS production (DCF-DA) in JFH-1 cells; type: cell-based, human; conditions: for ROS production: 2 hours, PEP1 0.001-10 μM, NAC, PDTC 100 μM, vitamin E 10 μM, vs vehicle
Protocol: One day after 5×10^4 (cells/well) cells of the JFH-1 cell line were seeded into a 24-well plate, intracellular ROS production was measured according to various experimental materials. Measurement of intracellular activity was carried out by staining the cells with dichlorodihydrofluoresein diacetate (DCF-DA; Invitrogen), and fluorescence measurement of ROS production was carried out at […] using Infinte M2000 Tecan (Tecan Trading AG, Switzerland). All fluorescent units were expressed as arbitrary units, and as a positive control group, hydrogen peroxide (H2O2, 2 mM) was used. ROS measurement for the Huh7.5 cells was also carried out by the same procedure as described above.
As a control group, a human HCC cell line, and Huh7.5 and JFH-1 cell lines were treated with known representative antioxidants such as NAC (2 Mm), PDTC (100 μM), and vitamin E (10 μM) and then compared.
The inventors inhibited the interaction with HSP90 by two methods: a use of antibodies against […] and antibodies against HSP90 or a use of an inhibitor occupying a catalytic position (ATP-binding pocket in the N-terminal of HSP90).

p38, JNK and ERK = test: Immunoblotting of MAPK signaling factors in JFH-1 cells; type: cell-based, human; conditions: 2 hours, vitamin E 10 μM
Protocol: Proteins were acquired from cells using a lysis solution (Cell Signaling Technology, Danvers, Mass., USA) containing a proteinase inhibitors cocktail (Roche, Basel, Switzerland) and a phosphatase inhibitor (Roche). To remove debris, which remained after cell lysis, the cells were centrifuged for 10 minutes at 4° C. 50 μg of the proteins were analyzed through 12% sodium dodecyl sulfate-polyacrylamide gel electrophoresis (SDS-PAGE), and then transferred to a polyvinylidene difluoride membrane (PVDF; Millipore, Bedford, Mass., USA). The transferred membrane was developed using an ImageQuant™ LAS 4000 mini biomolecular imager (GE Healthcare Bio-Sciences AB, Sweden), after antibodies against HSP90, p38, p-p38 (Thr180/Tyr182), JNK, p-JNK (Thr183/Tyr185), ERK, p-ERK (Thr202/Tyr204), and zinc-copper containing enzyme SOD (CuZn-SOD) and manganese-SOD (Mn-SOD) as superoxide dismutase oxidases (SODs), and GAPDH (all of them were purchased from Cell Signaling Technology and Santa Cruz Biotechnology) were attached to the membrane and then visualized by a SuperSignal West Pico chemiluminescence substrate (Pierce, Rockford, USA). β-actin was used for normalization using a Multi Gauge V 3.0 (Fuji Film, Japan), and quantitative analysis was carried out by densitometry. […]

[1] = tested on: HSP90 (extracellular HSP90, eHSP90); test: Extracellular HSP90 detection by ELISA in JFH-1 culture supernatant; type: cell-based, human; conditions: JFH-1 cells, PDTC 100 μM, 2 hours, vs control
Protocol: The Huh7.5 and JFH-1 cell lines were treated with an oxidant (H2O2, 2 mM) and an antioxidant, PDTC (100 μM), for two hours. HSP90 (extracellular HSP90, eHSP90) in the supernatant of a culture was detected by ELISA (R&D Systems, Minneapolis, Minn., USA) according to the manufacturer's instructions.

HIV-1 [2] = conditions: characteristics of control anti-HIV drugs stated as well known; cited from earlier work
HIV-1 [3] = conditions: MT-4 cells
Protocol: The MT-4 cells (4×10^5 cells) were infected with HIV-1 (4×10^5 50% cell culture infective dose (CCID50)) for one hour. […] After two days of incubation, images of the MT-4 cells expressing eGFP were obtained using a fluorescence microscope before harvesting the cells. To remove cell debris, the collected supernatant was subjected to centrifugation at 13,000 rpm for 3 minutes, and to measure an extracellular viral amount, p24 ELISA or RNA extraction was performed for a reverse transcription-quantitative polymerase chain reaction (RT-qPCR). Meanwhile, the cell pellets were washed with D-PBS twice, and used for a cell viability assay. […] HIV-1 replication was analyzed by p24 ELISA, and eGFP was monitored using a fluorescent microscope.
To measure HIV-1 virus titers, HIV-1 p24 antigen capture ELISA (p24 ELISA, ABL) and RT-qPCT assay were performed according to the manufacturer's instructions. HIV-1 RNA genomes were purified from the cell culture supernatants and pellets using a QIAamp Ultrasens Virus kit (Qiagen, Hilden, Germany) according to the manufacturer's instructions. The HIV-1 RNA levels were quantified by RT-qPCR using a primer pair specific to gag of HIV-1. Glyceraldehyde phosphate dehydrogenase (GAPDH) was used as a reference gene for normalization. […]

[4] = tested on: HIV-1-infected MT-4 cells; test: Cell protective effect from HIV-1-induced cell death in MT-4 cells; type: cell-based, human; conditions: 5 days
Protocol: MT-4, 1G5 or ACH-2 cells were seeded in a 96-well microplate at a density of 1×10^4 cells/well, and incubated with increasing concentrations of PEP1 for 5 days. Cell viability was determined by colorimetry using a CellTiter96 Aqueous One Solution assay kit (Promega, Wis.) according to the manufacturer's instructions. To assess the cell protective effect of PEP1 from HIV-1-induced cell death, MT-4 cells (1×10^4) were infected with the HIV-1 virus (4×10^5 CCID50) for 5 days with or without PEP1, and subjected to a cell viability assay.
It has been known that apoptosis of HIV-infected cells occurs by an intracellular cell death mechanism.

[5] = tested on: HIV-1 Tat transactivation; test: HIV-LTR-luciferase assay in 1G5 cells transfected with Tat plasmids; type: cell-based; conditions: four days
Protocol: An HIV-1 transactivation protein (Tat) is a regulatory protein dramatically enhancing HIV-1 transcription through the interaction with the tat-transcriptional active region (TAR). […] In the present invention, as a Jurkat-derived cell line, 1G5 containing a stably-inserted HIV-LTR-luciferase construct was used.
The 1G5 cells were transfected with Tat plasmids. […] Four days after the infection, the transactivation of HIV-LTR was analyzed through a luciferase assay.

NF-κB = NF-κB dual-luciferase assay in MT-4 cells; type: cell-based, human; conditions: 24 hours
Description: NF-κB triggers HIV transcription by interacting with an NF-κB-binding site in HIV-LTR, and increases the activation of TAT-mediated LTR […]. In addition, Tat can directly activate NF-κB. Recently, there have been studies showing that eHSP90 can regulate various intracellular signaling pathways, including the NF-κB pathway.

HIV-1 [6] = conditions: ACH-2 cells, RT-qPCR, stepwise increasing concentrations
Protocol: That is, ACH-2 cells, that is, cells latently-infected with HIV-1, were stimulated with PMA (50 nM) to induce reactivation of HIV-1 for 1 hour. […] A production level of viral particles in the supernatant was determined by p24 ELISA.
The levels of viral genomic RNA of the produced viral particles were determined by RT-qPCR.

With `CC(=O)N[C@@H](CS)C(=O)O` [NAC, N-acetylcysteine] the “NS2 transcription (HCV RNA replication)” value (HCV) was “do not inhibit the NS2 transcription at all” and the ROS production (JFH-1 cells) was “induced a decrease in ROS production”.
In the case of vitamin E, the “NS2 transcription (HCV RNA replication)” value (HCV) is reported as “do not inhibit the NS2 transcription at all”, the ROS production (JFH-1 cells) is reported as “induced a decrease in ROS production” and the ERK activity (p38, JNK and ERK) is reported as “increased”.
In the case of `S=C(S)N1CCCC1` [PDTC, pyrolidine dithiocarbamate], the “NS2 transcription (HCV RNA replication)” value (HCV) is reported as “do not inhibit the NS2 transcription at all”, the ROS production (JFH-1 cells) is reported as “induced a decrease in ROS production” and the “ROS production in the presence of KNK and 17AAG” value (JFH-1 cells; PDTC) is reported as “inhibits ROS production in the presence of both of KNK and 17AAG”. The “ROS production with HSP70/HSP90 blocking antibodies” value (JFH-1 cells; PDTC) was “inhibits ROS production regardless of blocking of HSP70 and HSP90” and the eHSP90 level [1] was “produced at a lower level than the control group”.
For `C=CCNC1=C2C[C@@H](C)C[C@H](OC)[C@H](O)[C@@H](C)/C=C(\C)[C@H](OC(N)=O)[C@@H](OC)/C=C\C=C(/C)C(=O)NC(=CC1=O)C2=O` [17AAG, 17-N-Allylamino-17-demethoxy geldanamycin], the “Change in ROS caused by HSP inhibitor” value (JFH-1 cells; 17AAG 1 μM, KNK 10 μM) was “the ROS inhibitory effect was exhibited”.
For `CC(C)c1nc(CN(C)C(=O)N[C@H](C(=O)N[C@@H](Cc2ccccc2)C[C@H](O)[C@H](Cc2ccccc2)NC(=O)OCc2cncs2)C(C)C)cs1` [Ritonavir], the “Time of treatment at which the control drug inhibits HIV proliferation” value (HIV-1 [2]) is given as “up to 15 hours”.
For `Cc1cn([C@H]2C[C@H](N=[N+]=[N-])[C@@H](CO)O2)c(=O)[nH]c1=O` [AZT, 3-azido-3-deoxythymidine], the “Inhibition of eGFP expression after anti-HSP90 antibodies” value (HIV-1 [3]; fluorescence / immunoblotting) was “an effect of AZT was not obtained”, the “Inhibition of HIV-1 production after anti-HSP90 neutralization antibodies” value (HIV-1 [3]; p24 ELISA) was “no influence” and the Cell protective effect [4] was “considerable cell protective effects in a dose-dependent manner”. The “HIV-LTR luciferase activity activated by ectopic expression of Tat” value [5] was “did not inhibit”, the “NF-κB activity in HIV-1-infected MT-4 cells” value (NF-κB) was “medium level of inhibitory effect” and the “Basal NF-κB activity” value (NF-κB; MT-4 cells) was “no significant effect”. The “Viral genomic RNA of produced viral particles after PMA” value (HIV-1 [6]) was “did not change the PMA effect”.
